# Molecular target: T1, Alpha carbonic anhydrase (Stylophora pistillata, UniProt B5SU02)
# T1 sequence (B5SU02 whole entry): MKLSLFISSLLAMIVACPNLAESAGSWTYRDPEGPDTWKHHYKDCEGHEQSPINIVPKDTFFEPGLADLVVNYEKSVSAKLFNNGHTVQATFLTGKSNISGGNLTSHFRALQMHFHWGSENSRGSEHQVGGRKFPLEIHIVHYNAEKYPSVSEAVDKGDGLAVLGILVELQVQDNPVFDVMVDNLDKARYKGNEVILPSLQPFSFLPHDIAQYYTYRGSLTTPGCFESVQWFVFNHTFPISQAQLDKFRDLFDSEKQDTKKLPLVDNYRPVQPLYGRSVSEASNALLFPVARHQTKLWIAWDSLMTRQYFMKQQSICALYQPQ
# Description: Inhibition of cloned Stylophora pistillata alpha-CA expressed in human HEK293 cells by stopped-flow CO2 assay
row,SMILES,Ki
1,NCCc1ccc(S(N)(=O)=O)cc1,94.3 nM
2,Cc1ccc(-c2cc(C(F)(F)F)nn2-c2ccc(S(N)(=O)=O)cc2)cc1 [CELECOXIB],34.2 nM
3,Nc1ccc(S(N)(=O)=O)cc1 [SULFANILAMIDE],364 nM
4,Nc1ccc(S(N)(=O)=O)cc1Cl,87.5 nM
5,NS(=O)(=O)c1ccc(C(=O)O)cc1 [CARZENIDE],435 nM
6,NS(=O)(=O)c1ccc(S(=O)(=O)Nc2cccc3c(Cl)c[nH]c23)cc1,163 nM
7,NNc1ccccc1S(N)(=O)=O,2510 nM
8,Nc1ccc(S(=O)(=O)Nc2nnc(S(N)(=O)=O)s2)cc1,27.6 nM
9,Nc1nnc(S(N)(=O)=O)s1,105 nM
10,NS(=O)(=O)c1ccc(CCO)cc1,770 nM
11,Nc1ccc(S(=O)(=O)NCCc2ccc(S(N)(=O)=O)cc2)cc1,19.7 nM
12,Nc1cc(Cl)c(S(N)(=O)=O)cc1S(N)(=O)=O,295 nM
13,Nc1ccc(S(=O)(=O)NCc2ccc(S(N)(=O)=O)cc2)cc1,29.8 nM
14,NCc1ccc(S(N)(=O)=O)cc1 [MAFENIDE],82.5 nM
15,Nc1nccc(Nc2ccc(S(N)(=O)=O)cc2)n1,25.4 nM
16,"Nc1cc(C(F)(F)F)c(S(N)(=O)=O)cc1S(N)(=O)=O [2,4-DISULFAMYLTRIFLUOROMETHYLANILINE]",367 nM
17,O=C1NS(=O)(=O)c2ccccc21 [SACCHARIN],40.3 nM
18,CCN[C@H]1CN(CCCOC)S(=O)(=O)c2sc(S(N)(=O)=O)cc21 [BRINZOLAMIDE],48.2 nM
19,Nc1ccc(S(N)(=O)=O)cc1F,75.1 nM
20,NS(=O)(=O)c1ccc(CO)cc1,768 nM
21,CC1(C)O[C@@H]2[C@@H](CO[C@@]3(COS(N)(=O)=O)OC(C)(C)O[C@@H]23)O1 [TOPIRAMATE],29.1 nM
22,Nc1ccc(S(N)(=O)=O)cc1I,88.3 nM
23,Cn1nc(S(N)(=O)=O)sc1=N,91.9 nM
24,Cc1ccc(S(N)(=O)=O)cc1 [P-TOLUENESULFONAMIDE],614 nM
25,Nc1ccc(S(N)(=O)=O)cc1Br,104 nM
26,NS(=O)(=O)c1nnc(NS(=O)(=O)c2ccccc2)s1 [BENZOLAMIDE],20.4 nM
